# Reference: patent US12115209B2, “ROMO1-derived antimicrobial peptides including lysine substitution and variants thereof” (KOREA UNIVERSITY RESEARCH AND BUSINESS FOUNDATION, priority 2019, dated 2024)
# No end group written: not given here.
# Assays:
# [1] = system: Staphylococcus aureus (ATCC 29213); experiment: Minimum bactericidal concentration (MBC) assay; type: cell-based; conditions: Tables 11-21, no unit printed
# Summary of the method: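 MBC taken as the lowest peptide level leaving no colonies on TS agar after 18 h at 37° C. Beforehand, 1×10^5 CFU/ml of each strain in sodium phosphate buffer with 1% TSB was treated 1 h at 37° C with peptide over 0-300 μg/ml.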
# [2] = system: Methicillin-resistant Staphylococcus aureus (MRSA, ATCC 33591); experiment: Minimum bactericidal concentration (MBC) assay; type: cell-based; conditions: Tables 11-21, no unit printed
# Summary of the method: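 Peptide at 0 to 300 μg/ml reacted 1 h at 37 °C with 1×10^5 CFU/ml bacteria in SP buffer (10 mM sodium phosphate, 1% TSB), bacteria pre-grown in 3% TSB. Aliquots then spread on TS agar and checked for colonies after 18 h at 37 °C.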
# CRPA = experiment: Minimum bactericidal concentration (MBC) assay; type: cell-based; conditions: Tables 11-21, no unit printed
# [3] = system: Staphylococcus aureus, Pseudomonas aeruginosa, methicillin-resistant Staphylococcus aureus and multidrug-resistant Pseudomonas aeruginosa; experiment: Bacteria remaining in the blood of infected mice after intravenous injection of the drug; type: in vivo, mice (C57BL/6); conditions: 10 mg/kg intravenous 1 hour after infection; blood 40 minutes after injection; compared with LL-37, magainin 2, daptomycin
# Experimental: Specifically, Staphylococcus aureus, Pseudomonas aeruginosa, methicillin-resistant Staphylococcus aureus and multidrug-resistant Pseudomonas aeruginosa was cultured in 3% (w/v) TSB liquid medium at 37° C. and 200 rpm for 4 hours, and then further cultured under the same conditions for 3 hours to a concentration of 5×10^9 CFU/ml. Strain solutions were prepared by diluting each of the further cultured strains with PBS solution to a final concentration of 1×10^5 CFU/μl.
# Next, 100 μl of each strain solution was injected intravenously (IV) into the tail vein of each of 10-week-old male mice (C57BL/6). After one hour, KU-5878 was intravenously injected at a concentration of 10 mg/kg. As a control, PBS was intravenously injected at a concentration of 10 mg/kg, and as a positive control, LL-37, magainin 2, or daptomycin was intravenously injected at a concentration of 10 mg/kg.
# 40 minutes after the intravenous injection of each drug, about 1 cm from the tail end of each mouse was cut using surgical scissors, and 10 μl of the blood at the end of the cut was collected and diluted in PBS. The diluted blood sample was plated on a previously prepared TSB agar plate and incubated in an incubator at 37° C. for 18 hours, and the formed colonies were counted for comparison.
# [4] = system: Staphylococcus aureus, Pseudomonas aeruginosa, Klebsiella pneumoniae and Acinetobacter baumannii; experiment: Survival rate of mice injected with gram-positive or gram-negative bacteria; type: in vivo, mice (C57BL/6); conditions: mice injected with gram-positive or gram-negative bacteria (FIG. 3)
# Excerpt: Following Example 2-2, in order to evaluate the antibacterial activity of the KU-5878 peptide in vivo, Staphylococcus aureus as gram-positive bacteria, Pseudomonas aeruginosa, Klebsiella pneumoniae and Acinetobacter baumannii as gram-negative bacteria, and multidrug-resistant Pseudomonas aeruginosa, methicillin-resistant Staphylococcus aureus, multidrug-resistant Klebsiella pneumoniae and multidrug-resistant Acinetobacter baumannii as multidrug-resistant bacteria were selected, and the following experiment was performed.
# The experimental method is as described in Example 2-2 above. For a positive group, each type of the bacteria was injected into mice, and after 24 hours, 30 mg/kg of imipenem, a carbapenem-based antibiotic, was injected intraperitoneally (IP), and then the same amount of imipenem was administered intraperitoneally a total of 4 times at 12-hour intervals. The survival rates of each control group and the experimental group were measured at 24-hour intervals.
sequence,measurement,setting,value
KTMMQSGGTFGTFMAIGMGIR [KU-5878],MBC Staphylococcus aureus,[1],100 µg/mL
same,MBC MRSA,[2],110 µg/mL
same,MBC MRSA,[2]; listed as 5878,100 µg/mL
same,MBC CRPA,CRPA,110 µg/mL
same,number of bacteria remaining in the blood vessels of the mice,[3],most greatly decreased
same,survival rate,[4],60%
